What all share (type): cell-based
Experiment [1] concerns human hepatocellular carcinoma cell line SNU398. The experiment can be described thus: Inhibition of cell proliferation (GI50), SNU398. Conditions: Homo sapiens; SNU 398 cells, 48 h, CellTiter-Glo. As to the method:
(§1) Human breast cancer cell lines T-47D, human hepatocellular carcinoma cell line SNU398, human colon carcinoma cell line HCT116, human lung cancer cell line H1299, human leukemia cell line K562, human lymphoma cell line Raji, human B cell lymphoblastoid cell line Ramos, and human Burkitt's lymphoma cell line Namalwa were grown and harvested as in Example 100. An aliquot of […] of cells (4.4×10^4 cells/mL) was added to a well of a 96-well microtiter plate containing 5 μL of a 10% DMSO in RPMI-1640 media solution containing 10 nM to 100 μM of 3-(2-chlorophenyl)-6-(3,4-methylenedioxyphenyl)-7H-[1,2,4]triazolo[3,4-b][1,3,4]thiadiazine (1 nM to 10 μM final). An aliquot of 45 μL of cells was added to a well of a 96-well microtiter plate containing 5 μL of a 10% DMSO in RPMI-1640 media solution without compound as the control sample for maximal cell proliferation (LMax). The samples were mixed by agitation and then incubated at 37° C. for 48 h in a 5% CO2-95% humidity incubator. After incubation, the samples were removed from the incubator and 25 μL of CellTiter-Glo™ reagent (Promega) was added. The samples were mixed by agitation and incubated at room temperature for 10-15 min. Plates were then read using a luminescent plate reader (Model SPECTRAfluor Plus, Tecan) to give Ltest values.
(§2) The samples were mixed by agitation and then incubated at 37° C. for 0.5 h in a 5% CO2-95% humidity incubator. After incubation, the samples were removed from the incubator and 25 μL of CellTiter-Glo™ reagent (Promega) was added. The samples were mixed by agitation and incubated at […] 10-15 min at room temperature in a 5% CO2-95% humidity incubator. Fluorescence was read as above, (LStart) defining luminescence for initial cell number used as baseline in GI50 determinations.
(§3) Calculation: GI50 (dose for 50% inhibition of cell proliferation) is the concentration where [(Ltest−LStart)/(LMax−LStart)]=0.5.
(ATP-based viability assays read luminescence as a measure of living cells.)

Experiment [2] has as its system human breast cancer cell line T-47D. The experiment can be described thus: Inhibition of cell proliferation (GI50), T47D. Conditions: Homo sapiens; T47D cells, 48 h, CellTiter-Glo. Here is the method:
as §1, §2, §3

In experiment [3] the test system is human colon carcinoma cell line HCT116. The experiment is described as follows: Caspase cascade activation (EC50), HCT116. Conditions: Homo sapiens, HCT-116; HCT116 cells; caspase cascade activation; read-out: caspase potency (EC50) HCT116. The essentials: (§4)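 Cells at 0.65×10^6 cells/mL exposed to compound at 0.016 to 10 μM final (1% DMSO) for 48 h at 37° C, 5% CO2. Caspase activity then read with 14 μM Ac-DEVD-R110 fluorogenic substrate in lysolecithin/DTT/PIPES pH 7.2 buffer at ex 485/em 530 nm after 3 h at room temperature. EC50 fitted sigmoidally from net RFU ratio to control.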

The subject of experiment [4] is human Burkitt's lymphoma cell line Namalwa. The experiment is described as follows: Inhibition of cell proliferation (GI50), Namalwa. Conditions: Homo sapiens, Burkitts lymphoma cell; Namalwa cells, 48 h, CellTiter-Glo. In short, it runs like this:
(§5)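 Seed 4.4×10^4 cells/mL onto compound dilutions (final 1 nM to 10 μM). Incubate 48 h, 37 °C, 5% CO2. Add CellTiter-Glo, read luminescence. Compute GI50 from test signal normalised between 0.5 h starting signal and untreated control.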

The test system is the same in experiment [5]. The experiment is described as follows: Caspase cascade activation (EC50), Namalwa. Conditions: Homo sapiens, Burkitts lymphoma cell; Namalwa cells; caspase cascade activation; read-out: caspase potency (EC50) Namalwa. The essentials: as §4
Experiment [6] relates to human colon carcinoma cell line HCT116. The experiment is described as follows: Inhibition of cell proliferation (GI50), HCT116. The following applies: Homo sapiens; HCT 116 cells, 48 h, CellTiter-Glo. In short, it runs like this: as §5
In experiment [7] the test system is human hepatocellular carcinoma cell line SNU398. The experiment is described as follows: Caspase cascade activation (EC50), SNU398. The following applies: Homo sapiens, SNU-398; SNU398 cells; caspase cascade activation; read-out: caspase potency (EC50) SNU398. The essentials:
as §4

The test system of experiment [8] is human breast cancer cell line T-47D. The experiment is described as follows: Caspase cascade activation (EC50), T-47D. Conditions: Homo sapiens; T47D cells; caspase cascade activation; read-out: caspase potency (EC50) T47D. The essentials:
as §4

The values below come from patent US20080045514A1 (Cytovia, Inc., priority 2006, published 2008).

Regarding `COc1ccc(Cl)cc1-c1nnc2n1N=C(c1ccc(C)cc1)CS2` [Example 62, 3-(5-Chloro-2-methoxyphenyl)-6-(4-methylphenyl)-7H-[1,2,4]triazolo[3,4-b][1,3,4]thiadiazine], the GI50 stood at 10 nM in experiment [1], 33 nM in experiment [2], 15 nM in experiment [4] and 50 nM in experiment [6]. Also, the EC50 in experiment [3] worked out at 31 nM; in experiment [5] it was 18 nM; in experiment [7] it was 24 nM; in experiment [8], 101 nM.
As to `COc1ccccc1-c1nnc2n1N=C(c1ccc(Cl)c(N)c1)CS2` [Example 59, 6-(3-Amino-4-chlorophenyl)-3-(2-methoxyphenyl)-7H-[1,2,4]triazolo[3,4-b][1,3,4]thiadiazine], the GI50 amounted to 98 nM in experiment [1], 103 nM in experiment [2], 84 nM in experiment [4] and 149 nM in experiment [6]. For the same molecule, the concentration giving a half-maximal response (EC50) in experiment [3] was 59 nM; in experiment [5], 34 nM; in experiment [7] it was 43 nM; in experiment [8], 102 nM.
On to `COc1ccccc1-c1nnc2n1N=C(c1ccc3[nH]c(=O)oc3c1)CS2` [Example 47, 6-(2,3-Dihydro-2-oxobenzo[d]oxazol-6-yl)-3-(2-methoxyphenyl)-7H-[1,2,4]triazolo[3,4-b][1,3,4]thiadiazine], for which the concentration for 50% growth inhibition (GI50) came to 1220 nM in experiment [1], 3020 nM in experiment [2], 1480 nM in experiment [4] and 3000 nM in experiment [6]. The EC50 in experiment [3] was determined as 5540 nM; in experiment [5], 4790 nM; in experiment [7], 2740 nM; in experiment [8], 2330 nM.
For `Cc1ccc(C2=Nn3c(nnc3-c3ccccc3C)SC2)cc1` [Example 70, 3-(2-Methylphenyl)-6-(4-methylphenyl)-7H-[1,2,4]triazolo[3,4-b][1,3,4]thiadiazine], the GI50 in experiment [1] worked out at 144 nM; in experiment [2], 500 nM; in experiment [4], 158 nM; in experiment [6] it was 1010 nM. The EC50 in experiment [3] was determined as 205 nM; in experiment [5], 157 nM; in experiment [7] it was 165 nM; in experiment [8], 546 nM.
For `COc1cccc(-c2nnc3n2N=C(c2ccc(C)cc2)CS3)c1OC` [Example 65, 3-(2,3-Dimethoxyphenyl)-6-(4-methylphenyl)-7H-[1,2,4]triazolo[3,4-b][1,3,4]thiadiazine], the 50% growth inhibitory concentration (GI50) amounted to 204 nM in experiment [1], 1510 nM in experiment [2], 1230 nM in experiment [4] and 4680 nM in experiment [6]. In addition, the EC50 in experiment [3] was 635 nM; in experiment [5], 561 nM; in experiment [7], 522 nM; in experiment [8], 610 nM.
Take `COc1ccccc1-c1nnc2n1N=C(c1ccc(N=[N+]=[N-])cc1)CS2` [Example 76, 6-(4-Azidophenyl)-3-(2-methoxyphenyl)-7H-[1,2,4]triazolo[3,4-b][1,3,4]thiadiazine]: the GI50 in experiment [1] was 23 nM; in experiment [2], 34 nM; in experiment [4], 55 nM; in experiment [6], 109 nM. Also, the EC50 in experiment [3] came out at 72 nM; in experiment [5], 62 nM; in experiment [7], 54 nM; in experiment [8], 93 nM.
As to `COc1ccccc1-c1nnc2n1N=C(c1ccc(C(F)(F)F)cc1)CS2` [Example 48, 6-(4-(Trifluoromethyl)phenyl)-3-(2-methoxyphenyl)-7H-[1,2,4]triazolo[3,4-b][1,3,4]thiadiazine], the GI50 in experiment [1] amounted to 120 nM; in experiment [2], 690 nM; in experiment [4] it was 452 nM; in experiment [6], 324 nM. Further, the EC50 is 569 nM in experiment [3], 480 nM in experiment [5], 511 nM in experiment [7] and 545 nM in experiment [8].
`CNc1ccccc1-c1nnc2n1N=C(c1ccc(C)cc1)CS2` [Example 84, 3-(2-Methylaminophenyl)-6-(4-methylphenyl)-7H-[1,2,4]triazolo[3,4-b][1,3,4]thiadiazine]: the GI50 in experiment [1] stood at 154 nM; in experiment [2], 498 nM; in experiment [4] it was 150 nM; in experiment [6] it was 911 nM. The EC50 was determined as 130 nM in experiment [3], 125 nM in experiment [5], 148 nM in experiment [7] and 528 nM in experiment [8].
In the case of `COc1ccccc1-c1nnc2n1N=C(c1ccc(C)c(C)c1)CS2` [Example 40, 3-(2-Methoxyphenyl)-6-(3,4-dimethylphenyl)-7H-[1,2,4]triazolo[3,4-b][1,3,4]thiadiazine], the GI50 turned out to be 50 nM in experiment [1], 137 nM in experiment [2], 29 nM in experiment [4] and 129 nM in experiment [6]. The 50% effective concentration (EC50) in experiment [3] turned out to be 65 nM; in experiment [5], 49 nM; in experiment [7], 41 nM; in experiment [8], 163 nM.
Regarding `Cc1ccc(C2=Nn3c(nnc3-c3ccccc3C)SC2)cc1N` [Example 61, 6-(3-Amino-4-methylphenyl)-3-(2-methylphenyl)-7H-[1,2,4]triazolo[3,4-b][1,3,4]thiadiazine], the GI50 was 228 nM in experiment [1], 269 nM in experiment [2], 150 nM in experiment [4] and 400 nM in experiment [6]. The EC50 in experiment [3] came out at 137 nM; in experiment [5], 71 nM; in experiment [7] it was 109 nM; in experiment [8], 330 nM.
As to `COc1ccccc1-c1nnc2n1N=C(c1ccc(N)cc1)CS2` [Example 75, 6-(4-Aminophenyl)-3-(2-methoxyphenyl)-7H-[1,2,4]triazolo[3,4-b][1,3,4]thiadiazine], the GI50 is 180 nM in experiment [1], 345 nM in experiment [2], 179 nM in experiment [4] and 867 nM in experiment [6]. Moreover, the EC50 in experiment [3] amounted to 266 nM; in experiment [5] it was 136 nM; in experiment [7] it was 203 nM; in experiment [8], 238 nM.
On to `COc1ccccc1-c1nnc2n1N=C(c1ccc(N(C)C)cc1)CS2` [Example 77, 6-(4-dimethylaminophenyl)-3-(2-methoxyphenyl)-7H-[1,2,4]triazolo[3,4-b][1,3,4]thiadiazine], for which the GI50 came to 2 nM in experiment [1], 5 nM in experiment [2], 5 nM in experiment [4] and 12 nM in experiment [6]. Moreover, the EC50 in experiment [3] turned out to be 11 nM; in experiment [5] it was 7 nM; in experiment [7], 14 nM; in experiment [8], 18 nM.
On to `COc1ccccc1-c1nnc2n1N=C(c1ccc3c(c1)OCCO3)CS2` [Example 43, 6-(2,3-Dihydrobenzo[b][1,4]dioxin-6-yl)-3-(2-methoxyphenyl)-7H-[1,2,4]triazolo[3,4-b][1,3,4]thiadiazine], for which the GI50 in experiment [1] turned out to be 13 nM; in experiment [2] it was 34 nM; in experiment [4], 64 nM; in experiment [6] it was 40 nM. Moreover, the EC50 in experiment [3] was 25 nM; in experiment [5], 15 nM; in experiment [7], 17 nM; in experiment [8], 35 nM.
For `CSc1ccccc1-c1nnc2n1N=C(c1ccc(C)cc1)CS2` [Example 71, 3-(2-Methylthiophenyl)-6-(4-methylphenyl)-7H-[1,2,4]triazolo[3,4-b][1,3,4]thiadiazine], the GI50 in experiment [1] came to 91 nM; in experiment [2], 276 nM; in experiment [4], 77 nM; in experiment [6] it was 169 nM. For the same molecule, the EC50 in experiment [3] is 76 nM; in experiment [5], 65 nM; in experiment [7] it was 70 nM; in experiment [8] it was 453 nM.

The term GI50 denotes the concentration that inhibits growth by half. A higher GI50 goes with lower sensitivity of the cells. Broadly, the EC50 is the concentration needed to bring the measured effect to its halfway point.
